# Experimental data from EP2307018B1, “OXYMATRINE COMPOSITIONS AND USE THEREOF FOR TREATING AND PREVENTING CHRONIC INFECTIOUS DISEASES” (Chia, John K.S., priority 2008, dated 2010).
# Tests used:
# Assay type in all cases: in vivo, human
# [1] = system: Mycobacterium avium complex (MAC); test: case report Example 8, Mycobacterium avium complex infection
# Method: A person with known history of Mycobacterium avium complex (MAC) infection of the lung and bronchiectasis for several years was treated with clarithromycin, ethambutol, ciprofloxacin and rifabutin for about five years. As a result of persistent positive sputum culture for MAC, the patient was also treated with gamma interferon (an immune booster) without significant benefit. Intravenous amikacin was added following right middle and left lingula lobectomy. In spite of the above therapy, sputum and repeat bronchial washing obtained by bronchoscopy grew MAC within three weeks. A computed tomography scan of the chest remained unchanged except for the post-surgical changes.
# Sputum became clear in color then resolved. About two months after the start of oxymatrine, the patient had fevers, flu-like symptoms, increase in non-productive cough, bilateral uveitis and elevation of liver enzymes to 3.5 times normal values. The symptoms lasted two weeks and resolved after tapering dose of oxymatrine to 200 mg bid. Liver enzymes returned to normal within six weeks. […] The anti-MAC medications were discontinued after […] of oxymatrine therapy. The dose of oxymatrine was tapered to 100 mg tid at four and a half months of therapy and then stopped after six months of total therapy. The patient felt well at the six month follow-up.
# [2] = system: enterovirus protein; test: immunoperoxidase staining of stomach biopsy before and after oxymatrine; settings: one patient (case 5), after taking oxymatrine for 6 months, correlated with symptomatic improvement
# Source text: FIG. 2 illustrates immunoperoxidase staining for enterovirus protein in a stomach biopsy before oxymatrine therapy for one patient. […] The decrease in viral protein correlated with significant symptomatic improvement.
# [3] = system: enterovirus; test: open-label, controlled oxymatrine clinical study in ME/CFS patients with enterovirus infection
# Method: An open-label, controlled study was conducted on patients who fulfilled the international criteria for myalgic encephalomyelitis (ME)/chronic fatigue syndrome (CFS) and had virological evidence of enterovirus infection.
# One hundred patients took oxymatrine at dose of 200-300 mg twice a day with or without food for a minimum of three months. Patients who could not complete the course due to side effects or intolerance were considered as failures (intent-to-treat analysis). Of the first group, 52% (52/100) responded to oxymatrine, as compared to 6% (7/114) of the control groups (p <0.000001, X^2 test). Of the next 104 patients, 52% responded to treatment. […] Fifty-three percent (57/107) of patients with elevated […] (CVB) and echovirus (Ech) antibody responded to therapy and 50% (49/97) of patients with non-typeable EV infections improved (NS, X^2 test). Fifty-two percent (47/91) of patients with positive EV protein in stomach biopsies responded, whereas 56% (5/9) of patients with negative biopsies responded (NS, X^2 test).
# [4] = system: cytokine gene expression; test: cytokine gene expression study on blood samples before and after oxymatrine (FIG. 4); settings: blood samples before and after taking oxymatrine for 15 months, one patient
# Source text: A cytokine gene expression study on blood samples before (Sample 2) and after (Sample 3) taking oxymatrine for 15 months in one patient, is graphically illustrated in FIG. 4. […] FIG. 5 illustrates that neutralizing antibodies CBV 3 and CBV 4 were obtained serially over a three year period (performed by ARUP laboratory, Salt Lake City, UT).
# [5] = system: enterovirus; test: case report Example 5, treatment of chronic fatigue
# Method: A person developed debilitating fatigue, sore throat, oral ulcers, vertigo, headaches and cognitive dysfunction two months after having a flu-like illness. […] Approximately four years later, the patient started taking oxymatrine. After an initial increase of gastrointestinal symptoms for the first two weeks, the patient tolerated 500 mg per day of oxymatrine.
# The symptoms continued for two weeks and resolved after stopping oxymatrine. […] They continued to improve for 12 months after taking the medication.
# [6] = system: enterovirus; test: case report Example 4, treatment of chronic fatigue
# Method: A person with a known history of frequent respiratory infections and vasovagal syncope developed respiratory infection, which was followed by bedridden fatigue. Enteroviral protein was detected in the stomach biopsy consistent with chronic enterovirus infection. […] After vigorous exercise, they would still have relapses of bedridden fatigue for one day but continued to work 10-12 hours per day for the next 12 months, walking two miles per day. Laboratory tests were normal while on therapy.
# [7] = case report Example 11, treating diarrhea; settings: after starting 200 mg bid
# Source text: A person developed continuing watery diarrhea, as many as twenty episodes a day, and mild fatigue for three months. Laboratory studies and stool work-up were completely negative. […] They failed Asacol therapy.
# [8] = system: enterovirus; test: case report Example 10, acute enterovirus infection of the gastrointestinal tract
# Source text: A person developed subacute onset of severe fatigue, nausea, anorexia and progressive weight loss of 20 pounds following an upper respiratory infection.
# [9] = side effects in 176 patients having taken oxymatrine
smiles,measurement,setting,value
O=C1CCC[C@@H]2[C@H]3CCC[N+]4([O-])CCC[C@@H](CN12)[C@@H]34 (some centres unmarked) [oxymatrine],elevation of liver enzymes,"[1]; about two months after start, returned to normal within six weeks after tapering to 200 mg bid",3.5 times normal values
same,repeat bronchial washing culture,"[1]; bronchoscopy six months after onset of oxymatrine therapy, with anti-MAC medications",no growth of MAC
same,repeat computed tomography scans of the chest,[1]; in vivo,healing and calcifications of the lesions
same,tolerability,[1]; in vivo,tolerated well
same,night sweats,[1]; within two months,decreased from twice a week to once every two weeks
same,viral protein by staining with enterovirus-specific monoclonal antibody (5 D8/1),[2],significant reduction
same,changes of other chemistry parameters and complete blood counts (CBC),[3]; compared to baseline values,no significant changes
same,patients who relapsed responded to restart of oxymatrine,[3]; eighty-seven percent,13/15
same,patients responded to oxymatrine,"[3]; first group (52/100), 200-300 mg twice a day, minimum three months, intent-to-treat, control groups 6% (7/114), p <0.000001",52%
same,"patients reporting transient, moderate increase in pre-existing symptoms","[3]; human, in vivo",more than 50%
same,patients with elevated blood pressure that prompted discontinuation of therapy,"[3]; human, in vivo",2/204
same,serious complications during therapy,"[3]; human, in vivo",No serious complications
same,tolerability,"[3]; most of the patients, except for variable increase of pre-existing symptoms during the first 1-2 days of maximal doses",tolerated oxymatrine well
same,patients responded to treatment,[3]; next 104 patients,52%
same,patients responded to therapy,"[3]; patients with elevated chrysanthemum virus B (CVB) and echovirus (Ech) antibody, fifty-three percent",57/107
same,patients responded,[3]; patients with negative biopsies (5/9),56%
same,patients improved,[3]; patients with non-typeable EV infections (49/97),50%
same,patients responded,"[3]; patients with positive EV protein in stomach biopsies, fifty-two percent",47/91
same,patients with transient increase in potassium,[3]; returned to normal without specific treatment,2/204
same,Diffuse rashes: % of total patients,[3]; [9],< 1%
same,Dry eyes and mouth: % of total patients,[3]; [9],1%
same,Fevers: % of total patients,[3]; [9],2%
same,Herpes simplex virus outbreak after discontinuation: % of total patients,[3]; [9],1%
same,Increase in blood pressure: % of total patients,[3]; [9],1%
same,Increase in edema: % of total patients,[3]; [9],1%
same,Increased abdominal pain: % of total patients,[3]; [9],6%
same,Increased bladder symptoms: % of total patients,[3]; [9],2%
same,Increased diarrhea: % of total patients,[3]; [9],4%
same,Increased dizziness: % of total patients,[3]; [9],2%
same,Increased fatigue: % of total patients,[3]; [9],4%
same,Increased headache: % of total patients,[3]; [9],8%
same,Increased insomnia: % of total patients,[3]; [9],1%
same,Increased myalgia: % of total patients,[3]; [9],30%
same,Increased nausea: % of total patients,[3]; [9],6%
same,"Increased palpitation, chest pain: % of total patients",[3]; [9],3%
same,Increased polyarthralgia: % of total patients,[3]; [9],1%
same,Increased sinus congestion: % of total patients,[3]; [9],3%
same,Inflammation of skin lesion: % of total patients,[3]; [9],1%
same,New rashes: % of total patients,[3]; [9],< 1%
same,Seizure (petit mal): % of total patients,[3]; [9],< 1%
same,Weight gain: % of total patients,[3]; [9],1%
same,patients who stopped oxymatrine due to intolerable side effects,"[3]; within the first eight weeks, twenty patients",10%
same,patients relapsed after discontinuation of oxymatrine,"[3]; within two days to one month after discontinuation, fifty-nine percent",19/32
same,"Th1 cytokines gene expression (interleukin-2, interleukin-12, interleukin-15)",[4],significant increase
same,regulatory Th2 cytokine gene expression (interleukin-10),[4],significant decrease
same,clinical outcome,[5]; three months after stopping oxymatrine,only had mild symptoms and was able to return to part-time work and regular exercise
same,adverse symptoms,"[5]; two months after taking the medication, 500 mg per day, continued two weeks, resolved after stopping","severe diffuse ulcerations of the mouth mucosa, increasing headache, sinus congestion and severe myalgia"
same,clinical outcome,"[6]; after taking the medication for six weeks, previously bedridden fatigue",returned to full-time work
same,tolerability,[6]; in vivo,tolerated well without any adverse reactions
same,laboratory tests,[6]; while on therapy,normal
same,diarrhea,[7],resolved completely in a few days
same,symptoms,[8]; 200 mg bid,promptly responded
same,activity,[8]; after taking oxymatrine for ten days,resumed their normal activity
